Measured values: patent US4758580A, “Inhibiting growth of tumors with certain substituted phenoxy dimethyl alkanoic acids, esters or salts” (Yamanouchi Pharmaceutical Co., Ltd., priority 1985, dated 1988)
≈ marks a conversion by molar mass, not a printed value.

How the values were obtained:
Bowes (melanoma) = assay: In vitro cytotoxicity against human tumor cells, Bowes; assay type: cell-based; conditions: 72 h, Bowes, 3 days, 37° C., crystalviolet, read-out: IC50
Procedure: (§1) A suspension of cells in a culture medium was transferred into wells in a microplate in an amount of 5×10^4 cells/well. Test sample diluted with a culture medium was added to the suspension in each well, and the mixture was incubated at 37° C. for 3 days in an atmosphere of air containing 5% carbon dioxide. After skimming, sticking cells were dyed which crystalviolet for 10 minutes. After washing with water, 1% sodium lauryl sulfate solution was added to each well, and the absrobancy (optical density) at […] was measured. "% inhibition" was calculated from the following equation. [formula]

MH 134 (liver cancer) = assay: In vitro cytotoxicity against mouse tumor cells, MH 134; assay type: cell-based; conditions: 72 h, MH 134, 3 days, 37° C., trypan blue, read-out: IC50
Procedure: (§2) A suspension of cells in a culture medium was transferred into wells in a microplate in an amount of 1×10^5 cells/wall. Test sample diluted with a culture medium was added to the suspension in each well, and the mixture was incubated on the medium at 37° C. for 3 days in atmosphere of air containing 5% carbon dioxide. Thereafter, the incubated cells were recovered from the microplate and the number of live cells was counted by the dye exclusion test using a 0.5% solution of trypan blue and by using a hemocytomer.

Ehrlich (carcinoma) = assay: In vitro cytotoxicity against mouse tumor cells, Ehrlich; assay type: cell-based; conditions: 72 h, Ehrlich (carcinoma), 3 days, 37° C., trypan blue, read-out: IC50
Procedure: as §2

MM-46 ascites tumor = assay: Anti-tumor test against mice mammary cancer MM-46 ascites tumor; assay type: in vivo, C3 H/He/CRJ mice
Procedure: MM-46 tumor cells, 1×10^6, on Day 7 after intraperitoneal transplantation to C3 H/He/CRJ mice (5 week age, male) of 10 mice each being grouped in one. The active component was intraperitoneally administered in a definite dose 24 hours after the transplantation according to the schedule shown in Table 5. An effect of tumor growth inhibition was evaluated by a percentage of the median survival time of the administered group versus that of the control group, according to the following equation.
T: median survival day of the administered group
C: median survival day of the control group

[1] = test system: KB (nasal cavity & pharynx cancer); assay: In vitro cytotoxicity against human tumor cells, KB; assay type: cell-based; conditions: 72 h, KB, 3 days, 37° C., crystalviolet, read-out: IC50
Procedure: as §1

[2] = Toxicity test (acute, oral); conditions: mouse, in vivo, ddY mice, male
Procedure: The active component was orally administered to ddY mice (mean body weight of 35 g, male). No example of death was noted up to the dose of 5,000 mg/kg. Accordingly, the acute toxicity of Compound B is greater than 5,000 mg/kg. (Effects)

[3] = test system: Meth A (methylcholanthrene-induced cancer); assay: In vitro cytotoxicity against mouse tumor cells, Meth A; assay type: cell-based; conditions: 72 h, Meth A, 3 days, 37° C., trypan blue, read-out: IC50
Procedure: as §2

ACHN (kidney cancer) = assay: In vitro cytotoxicity against human tumor cells, ACHN; assay type: cell-based; conditions: 72 h, 3 days, 37° C., crystalviolet, read-out: IC50
Procedure: as §1

Ehrlich solid tumor = assay: Anti-tumor test against Ehrlich solid tumor; assay type: in vivo, ddY/SLC mice
Procedure: Ehrlich tumor cells, 2×10^6, on Day 7 after intraperitoneal transplantation to ddY/SLC mice were subcutaneously transplanted in the left abdomen of ddY/SLC mice (5 week age, male), 10 each grouped into one. The active component was intraperitoneally or orally administered in a definite dose 24 hours after the transplantation, according to the schedule shown in Table 1 (A), (B) or (C). An effect of inhibiting growth of tumor was compared, by measuring the long diameter and short diameter of the tumor on 14, 20 and 21 Days after the transplantation, calculating the tumor size (mm^2) and determining a tumor growth inhibition rate of the group administered with the active component to the control group according to the following equation:
Growth inhibition rate (%)=(C-T)/C×100
T: means tumor size (mm^2) in the active component-administered group
C: mean tumor size (mm^2) in the control group

[4] = 6.25 mg/kg i.p., 1, 2, 3, 4 and 6 Days
[5] = 12.5 mg/kg i.p., 1, 2, 3, 4 and 6 Days
[6] = 25 mg/kg i.p., 1, 2, 3, 4 and 6 Days
[7] = 50 mg/kg i.p., 1, 2, 3, 4 and 6 Days
[8] = 100 mg/kg i.p., 1, 2, 3, 4 and 6 Days
[9] = 200 mg/kg i.p., 1, 2, 3, 4 and 6 Days
[10] = Day 14, 60 mg/kg i.p., Days 1, 2, 3, 4, 7, 8, 10 & 13
[11] = Day 14, 100 mg/kg i.p., Days 1, 3, 7, 10, 13 & 14
[12] = Day 14, 200 mg/kg p.o., Days 1, 2, 3, 4, 7, 8, 10 & 13
[13] = Day 21, 60 mg/kg i.p., Days 1, 2, 3, 4, 7, 8, 10 & 13
[14] = Day 21, 100 mg/kg i.p., Days 1, 3, 7, 10, 13 & 14
[15] = Day 21, 200 mg/kg p.o., Days 1, 2, 3, 4, 7, 8, 10 & 13

Compound: CCOC(=O)C(C)(C)CCCCOc1ccc(OCCCCCn2ccnc2)cc1 [Compound B]
- IC50 (Bowes (melanoma)): 1 µg/mL (≈ 2.4 µM)
- IC50 (MH 134 (liver cancer)): 2.2 µg/mL (≈ 5.28 µM)
- IC50 (Ehrlich (carcinoma)): 0.5 µg/mL (≈ 1.2 µM)
- Median Survival Day (MM-46 ascites tumor; [4]): 7.0 days
- Survivors (90 days) (MM-46 ascites tumor; [4]): 0/10
- T/C (median survival) (MM-46 ascites tumor; [4]): 93.3%
- Median Survival Day (MM-46 ascites tumor; [5]): 7.0 days
- Survivors (90 days) (MM-46 ascites tumor; [5]): 0/10
- T/C (median survival) (MM-46 ascites tumor; [5]): 93.3%
- Median Survival Day (MM-46 ascites tumor; [6]): 8.5 days
- Survivors (90 days) (MM-46 ascites tumor; [6]): 0/10
- T/C (median survival) (MM-46 ascites tumor; [6]): 113.3%
- Median Survival Day (MM-46 ascites tumor; [7]): 34.0 days
- Survivors (90 days) (MM-46 ascites tumor; [7]): 0/10
- T/C (median survival) (MM-46 ascites tumor; [7]): 453.3%
- Median Survival Day (MM-46 ascites tumor; [8]): 49.0 days
- Survivors (90 days) (MM-46 ascites tumor; [8]): 1/10
- T/C (median survival) (MM-46 ascites tumor; [8]): 653.3%
- Median Survival Day (MM-46 ascites tumor; [9]): 18.5 days
- Survivors (90 days) (MM-46 ascites tumor; [9]): 0/10
- T/C (median survival) (MM-46 ascites tumor; [9]): 246.7%
- IC50 [1]: 1.15 µg/mL (≈ 2.76 µM)
- LD50 [2]: > 5000 mg/kg
- IC50 [3]: 0.8 µg/mL (≈ 1.92 µM)
- IC50 (ACHN (kidney cancer)): 2.3 µg/mL (≈ 5.52 µM)
- Growth Inhibition Rate (Ehrlich solid tumor; [10]): 25.7%
- Size of Tumor (Ehrlich solid tumor; [10]): 107.3 ± 54.6 mm^2
- Growth Inhibition Rate (Ehrlich solid tumor; [11]): 51.4%
- Size of Tumor (Ehrlich solid tumor; [11]): 70.1 ± 33.8 mm^2
- Growth Inhibition Rate (Ehrlich solid tumor; [12]): 66.3%
- Size of Tumor (Ehrlich solid tumor; [12]): 48.7 ± 44.3 mm^2
- Growth Inhibition Rate (Ehrlich solid tumor; [13]): 37.0%
- Size of Tumor (Ehrlich solid tumor; [13]): 323.3 ± 163.4 mm^2
- Growth Inhibition Rate (Ehrlich solid tumor; [14]): 38.5%
- Size of Tumor (Ehrlich solid tumor; [14]): 315.3 ± 235.3 mm^2
- Growth Inhibition Rate (Ehrlich solid tumor; [15]): 78.7%
- Size of Tumor (Ehrlich solid tumor; [15]): 109.2 ± 133.5 mm^2
